The source of these data is patent publication US20020028836A1, “Potassium channel openers” (priority 2000, published 2002).

As usually defined, the Emax is the size of the effect at its maximum, as opposed to the concentration needed.

Read-outs that look alike come from different tables or passages of the source.

The test relates to tissue strips obtained from Landrace pig bladders. In words: Functional potassium channel opening activity in isolated bladder strips (field-stimulated twitch). Conditions: for Index: ED50 for P1075 divided by ED50 for the test agonist in a given tissue, averaged; for EC50: amount of agent necessary to cause 50% of the agent's maximal response, read-out: ED50 (the source's name); for Efficacy (% P1075) / Emax: maximal efficacy relative to P1075, field stimulation 0.05 Hz, 0.5 ms, 20 volts. The procedure:
Compounds were evaluated for functional potassium channel opening activity using tissue strips obtained from Landrace pig bladders.
Landrace pig bladders were obtained from female Landrace pigs of 9-30 kg. Landrace pigs were euthanized with an intraperitoneal injection of pentobarbital solution, Somlethal®, J. A. Webster Inc., Sterling, Mass. The entire bladder was removed and immediately placed into Krebs Ringer bicarbonate solution (composition, mM: NaCl, 120; NaHCO3, 20; dextrose, 11; KCl, 4.7; CaCl2, 2.5; MgSO4, 1.5; KH2PO4, 1.2; K2EDTA, 0.01, equilibrated with 5% CO2/95% O2pH 7.4 at 37° C.). Propranolol (0.004 mM) was included in all of the assays to block β-adrenoceptors. The trigonal and dome portions were discarded. Strips 3-5 mm wide and 20 mm long were prepared from the remaining tissue cut in a circular fashion. The mucosal layer was removed. One end was fixed to a stationary glass rod and the other to a Grass FT03 transducer at a basal preload of 1.0 gram. Two parallel platinum electrodes were included in the stationary glass rod to provide field stimulation of 0.05 Hz, 0.5 milli-seconds at 20 volts. This low frequency stimulation produced a stable twitch response of 100-500 centigrams. Tissues were allowed to equilibrate for at least 60 minutes and primed with 80 mM KCl. A control concentration response curve (cumulative) was generated for each tissue using the potassium channel opener P1075 as the control agonist. […] After a 60 minute rinsing period, a concentration response curve (cumulative) was generated for the test agonist in the same fashion as that used for the control agonist P1075. The maximal efficacy of each compound (expressed as % relative to P1075) is reported. The amount of agent necessary to cause 50% of the agent's maximal response (ED50) was calculated using “ALLFIT” (DeLean et al., Am. J. Physiol., 235, E97 (1980)), hereby incorporated by reference. Agonist potencies were also expressed as an index relative to P1075. The index was calculated by dividing the ED50 for P1075 by the ED50 for the test agonist in a given tissue. Each tissue was used for only one test agonist, and the indices obtained from each tissue were averaged to provide an average index of potency.

Turning to `CC(Cl)(Cl)C(NC(=O)c1ccc(Cl)cc1)NC(=NC#N)Nc1cccnc1` (single isomer, unassigned; (+)) [Example 118, (+) 4-chloro-N-(2,2-dichloro-1-{[(cyanoimino)(3-pyridinylamino)methyl]amino}propyl)benzamide], the Index worked out at 0.006, the EC50 amounted to 22 µM and the “Efficacy (% P1075)” value came to 69 % P1075.

Take `CC(C)(C)CC(NC(=O)c1ccc(Cl)cc1)NC(=N[N+](=O)[O-])Nc1cccnc1` (single isomer, unassigned; (+)) [Example 125, (+) 4-chloro-N-(1-{[(nitroimino)(3-pyridinylamino)methyl]amino}-3,3-dimethylbutyl)benzamide]: the Index came out at 0.030, the EC50 is 9.2 µM and the “Efficacy (% P1075)” value is reported as 92 % P1075.

Regarding `CC(Cl)(Cl)C(NC(=O)c1ccc(Cl)cc1)NC(=NC#N)Nc1ccc(Cl)nc1` (single isomer, unassigned; (+)) [Example 162, (+) 4-chloro-N-(2,2-dichloro-1-{[[(6-chloro-3-pyridinyl)amino](cyanoimino)methyl]amino}propyl)benzamide], the Index turned out to be 0.025, the EC50 worked out at 9 µM and the “Efficacy (% P1075)” value was found to be 87 % P1075.

Take `CC(C)(C)CC(NC(=O)c1ccc(Cl)cc1)NC(=NS(=O)(=O)C(F)(F)F)Nc1cccnc1` (single isomer, unassigned; (+)) [Example 186, (+) 4-chloro-N-{3,3-dimethyl-1-[((3-pyridinylamino){[(trifluoromethyl)sulfonyl]imino}methyl)amino]butyl}benzamide]: the Index turned out to be 2.1, the EC50 was determined as 1.2 µM and the “Efficacy (% P1075)” value is 66 % P1075.

As for `CC(Cl)(Cl)C(NC(=O)c1ccc(Cl)cc1)NC(=NC#N)Nc1cccnc1` (single isomer, unassigned; (-)) [Example 117, (−) 4-chloro-N-(2,2-dichloro-1-{[(cyanoimino)(3-pyridinylamino)methyl]amino}propyl)benzamide], the Index is 0.030, the EC50 is 5.8 µM and the “Efficacy (% P1075)” value is 79 % P1075.

With `CC(Cl)(Cl)C(NC(=O)c1ccc(Cl)cc1)NC(=NC#N)Nc1ccc(Cl)nc1` (single isomer, unassigned; (-)) [Example 161, (−) 4-chloro-N-(2,2-dichloro-1-{[[(6-chloro-3-pyridinyl)amino](cyanoimino)methyl]amino}propyl)benzamide], the Index turned out to be 0.108, the EC50 is 4 µM and the “Efficacy (% P1075)” value was 93 % P1075.

For the compound `CC(C)(C)CC(NC(=O)c1ccc(Cl)cc1)NC(=NS(=O)(=O)C(F)(F)F)Nc1cccnc1` (single isomer, unassigned; (-)) [Example 187, (−) 4-chloro-N-{3,3-dimethyl-1-[((3-pyridinylamino){[(trifluoromethyl)sulfonyl]imino}methyl)amino]butyl}benzamide], the Index was 0.077, the EC50 is 7.8 µM and the “Efficacy (% P1075)” value is 52 % P1075.

For the compound `CC(C)(C)C(NC(=O)c1ccc(Cl)cc1)NC(=NC#N)Nc1cnc2ccccc2c1` (stereo not drawn) [Example 83, 4-chloro-N-(1-{[(cyanoimino)(3-guinolinylamino)methyl]amino}-2,2-dimethylpropyl)benzamide], the Index is 0.031, the EC50 was 2.8 µM and the “Efficacy (% P1075)” value worked out at 62 % P1075.

The compound `CC(C)(C)C(NC(=O)c1cc(F)cc(F)c1)NC(=NC#N)Nc1cccnc1` (stereo not drawn) [Example 110, N-(1-{[(cyanoimino)(3-pyridinylamino)methyl]amino}-2,2-dimethylpropyl)-3,5-difluorobenzamide] returned an Index of 0.017. Moreover, under “Sus scrofa”, the EC50 was found to be 6.2 µM and the Emax came out at 61%.

Regarding `CC(Cl)(Cl)C(NC(=O)c1ccc(Cl)cc1)NC(=NC#N)Nc1cccnc1` (stereo not drawn) [Example 116, 4-chloro-N-(2,2-dichloro-1-{[(cyanoimino)(3-pyridinylamino)methyl]amino}propyl)benzamide], the Index is on record as 0.028, the EC50 worked out at 3.3 µM and the “Efficacy (% P1075)” value stood at 94 % P1075.

`CC(Cl)(Cl)C(NC(=O)c1cccc(Cl)c1)NC(=NC#N)Nc1cccnc1` (stereo not drawn) [Example 119, 3-chloro-N-(2,2-dichloro-1-{[(cyanoimino)(3-pyridinylamino)methyl]amino}propyl)benzamide] returned an Index of 0.939. Further, under “Sus scrofa”, the EC50 was 3.4 µM and the Emax was found to be 78%.

In turn, `CC(Cl)(Cl)C(NC(=O)c1cc(F)cc(F)c1)NC(=NC#N)Nc1cccnc1` (stereo not drawn) [Example 120, N-(2,2-dichloro-1-{[(cyanoimino)(3-pyridinylamino)methyl]amino}propyl)-3,5-difluorobenzamide] yielded an Index of 0.017. Where the note is “Sus scrofa”, the EC50 was found to be 7.5 µM and the Emax was 84%.

In turn, `N#CN=C(Nc1cccnc1)NC(NC(=O)c1ccc(Cl)cc1)C(F)(F)C(F)(F)F` (stereo not drawn) [Example 121, 4-chloro-N-(1-{[(cyanoimino)(3-pyridinylamino)methyl]amino}-2,2,3,3,3-pentafluoropropyl)benzamide] displayed an Index of 0.044. Also, where the note is “Sus scrofa”, the EC50 came to 4.8 µM and the maximal effect (Emax) came out at 89%.

Take `CC(C)(C)CC(NC(=O)c1ccc(Cl)cc1)NC(=NS(=O)(=O)C(F)(F)F)Nc1cccnc1` (stereo not drawn) [Example 142, 4-chloro-N-{3,3-dimethyl-1-[((3-pyridinylamino){[(trifluoromethyl)sulfonyl]imino}methyl)amino]butyl}benzamide]: the Index was 0.270, the EC50 is 0.6 µM and the “Efficacy (% P1075)” value was 44 % P1075.

For `CC(Cl)(Cl)C(NC(=O)c1cc(F)cc(F)c1)NC(=NC#N)Nc1ccc(C(F)(F)F)nc1` (stereo not drawn) [Example 155, N-{2,2-dichloro-1-[((cyanoimino){[6-(trifluoromethyl)-3-pyridinyl]amino}methyl)amino]propyl}-3,5-difluorobenzamide], the Index was 0.022. For the same compound, where the note is “Sus scrofa”, the EC50 worked out at 2.5 µM and the Emax stood at 95%.

With `CC(Cl)(Cl)C(NC(=O)c1cccc(F)c1)NC(=NC#N)Nc1ccc(Cl)nc1` (stereo not drawn) [Example 156, N-(2,2-dichloro-1-{[[(6-chloro-3-pyridinyl)amino](cyanoimino)methyl]amino}propyl)-3-fluorobenzamide], the Index worked out at 0.048. Further, where the note is “Sus scrofa”, the EC50 amounted to 4 µM and the maximal response (Emax) came to 93%.

`CC(Cl)(Cl)C(NC(=O)c1ccc(Cl)cc1)NC(=NC#N)Nc1ccc(C(F)(F)F)nc1` (stereo not drawn) [Example 158, 4-chloro-N-{2,2-dichloro-1-[((cyanoimino){[6-(trifluoromethyl)-3-pyridinyl]amino}methyl)amino]propyl}benzamide] showed an Index of 0.061. Also, for the setting “Sus scrofa”, the EC50 was 4.8 µM and the Emax is 92%.

The compound `CC(Cl)(Cl)C(NC(=O)c1cccc(Cl)c1)NC(=NC#N)Nc1ccc(C(F)(F)F)nc1` (stereo not drawn) [Example 159, 3-chloro-N-{2,2-dichloro-1-[((cyanoimino){[6-(trifluoromethyl)-3-pyridinyl]amino}methyl)amino]propyl}benzamide] returned an Index of 0.013. Under “Sus scrofa”, the EC50 was 7.9 µM and the Emax turned out to be 92%.

As for `CC(Cl)(Cl)C(NC(=O)c1ccc(Cl)cc1)NC(=NC#N)Nc1cccnc1Cl` (stereo not drawn) [Example 168, 4-chloro-N-(2,2-dichloro-1-{[[(2-chloro-3-pyridinyl)amino](cyanoimino)methyl]amino}propyl)benzamide], the Index came to 0.064. For the same compound, under “Sus scrofa”, the EC50 is 0.89 µM and the Emax was found to be 92%.

Regarding `CC(Cl)(Cl)C(NC(=O)c1cccc(Cl)c1)NC(=NC#N)Nc1cccc(F)c1` (stereo not drawn) [Example 169, 3-chloro-N-(2,2-dichloro-1-{[(cyanoimino)(3-fluoroanilino)methyl]amino}propyl)benzamide], the Index amounted to 0.231. Also, where the note is “Sus scrofa”, the EC50 was 5 µM and the maximal effect (Emax) came out at 75%.

`Cc1cccc(C(=O)NC(NC(=NC#N)Nc2ccc(Cl)nc2)C(C)(Cl)Cl)c1` (stereo not drawn) [Example 170, N-(2,2-dichloro-1-{[[(6-chloro-3-pyridinyl)amino](cyanoimino)methyl]amino}propyl)-3-methylbenzamide]: the Index is recorded as 0.012. Also, under “Sus scrofa”, the EC50 was found to be 4.2 µM and the maximum response (Emax) was found to be 100%.
